Where a name gives a salt, the structure may show the parent alone. Read-outs that look alike come from different tables or passages of the source. One block for each molecule: values may come before it.
Legend:
[1] = test system: bleeding time in male SD rats; settings: rat, in vivo, po
Method: (§1) 5-week-old male SD rats (body weight is 138 to 152 g), 6 rats per one group, were used. […] 50 minutes after the administration, 50 mg/kg of pentobarbital sodium was intraperitoneally injected into the rat.
(§2) 10 minutes later, the tail was cut off at a position of 2 mm from the tip using a surgical blade, and was immediately immersed into a glass container (Magnus bath) filled with physiological saline maintained at approximately 37° C. to observe until the rat stopped bleeding.
(§3) The bleeding time was taken as the time from the tail cutting to the cessation of bleeding. The tail was marked at a position of 5 cm from the tip in advance, and was immersed in the physiological saline in the glass container at the depth of 5 cm from the surface. The maximum observation time was defined as 60 minutes after the tail cutting.

[2] = Stability test in acidic or basic solution (half-life by liquid chromatography); format: physicochemical; settings: time to 50% residual rate; for Half-life, pH 3.4 solution: phosphate buffer pH 3.4; for Half-life, pH 3.4 solution / Half-life, pH 7.3 solution: 1 mmoL/L, 37° C.; for Half-life, pH 7.3 solution: phosphate buffer pH 7.3
Method: The test compounds were dissolved in an acidic solution (phosphate buffer (pH3.4)) and in a basic solution (phosphate buffer (pH7.3)) at the concentration of 1 mmoL/L. Immediately after they were dissolved, each solution was analyzed with liquid chromatography using an acidic solution (phosphate buffer (pH3.4)) or basic solution (phosphate buffer (pH7.3)) as an eluent. The peak area of the test compounds was measured as the initial value. Furthermore, a time-course analysis with liquid chromatograpy was conducted to measure the peak area at each time point. The solution containing the test compound was kept in an incubator at 37° C. Based on the measured peak area of the test compounds, the percentage (%) of the peak area at each measurement time point was calculated, taking the peak area of the initial value as 100(%). The half-life (the time to show a 50% residual rate of the test compounds) of the test compounds was further calculated, and its stability was evaluated based on the half-life.

[3] = Bioabsorption: plasma concentration measurement in rats with oral administration; format: in vivo, rat; settings: for concentration at 0.25 h: read-out: plasma concentration, Mean, time point 0.25 h; for concentration at 0.5 h: read-out: plasma concentration, Mean, time point 0.5 h; for concentration at 1 h: read-out: plasma concentration, Mean, time point 1.0 h; for concentration at 2 h: read-out: plasma concentration, Mean, time point 2.0 h; for concentration at 4 h: read-out: plasma concentration, Mean, time point 4.0 h; for concentration at 6 h: read-out: plasma concentration, Mean, time point 6.0 h; for concentration at 8 h: read-out: plasma concentration, Mean, time point 8.0 h; for AUC: read-out: AUC (area under the plasma concentration-time curve); for Cmax: read-out: Cmax (maximum plasma concentration); for Tmax: read-out: Tmax (time required to reach the maximum plasma concentration)
Method: We conducted a plasma concentration measurement in rats with oral administration to compare the absorption of the compound of the present invention (compound No. 451) with the comparative compound A and B.
6-week-old male SD rats (body weight is 200 to 230 g) were used for this test (3 rats per one group). The required amount of test compound was weighed and pulverized in an agate mortar. Then, a 0.5 (w/v) % methyl cellulose solution was added to prepare the suspension at the concentration of 10 mg/5 mL. 5 mL per kg body weight of the suspension was orally administered to rats once using a feeding tube for rats. About 0.3 mL of blood was sampled from the caudal vein using a heparinized glass tube at 0.25, 0.5, 1, 2, 4, 6, 8, 12 and 24 hours after the administration, and was centrifuged to obtain plasma.
30 μL of methanol and 300 µL of acetonitrile were added to 120 μL of the obtained plasma, and mixed with a Vortex mixer for 15 seconds. The sample was centrifuged to obtain 300 μL of the supernatant. The supernatant was dried, and 120 μL of an eluent was added thereto, and then mixed with a Vortex mixer for 15 seconds. After the mixture was centrifuged, the amount of each test compound remaining in the plasma was determined with liquid chromatography.
40 μL of the sample, as prepared above, was applied to liquid chromatography with the following conditions to conduct the measurement.
• Column: InertsiL (registered trademark) ODS-3 4.6 mmI.D.×250 mm; • Column temperature: 40° C.; • Eluent: Solution A (10 mmoL/L ammonium acetate:methanol=50:50), and Solution B (10 mmoL/L ammonium acetate:methanol=10:90); • Gradient condition (eluent composition): solution A→20 min.→solution B (5 min. elution)→1 min.→solution A (12 min. elution); • Flow rate: 1.0 mL; and • Detection wavelength: 314 nm.
• Column: InertsiL (registered trademark) ODS-3 4.6 mmI.D.×150 mm; • Column temperature: 40° C.; • Eluent: Solution A (aqua:methanol:acetic acid=90:10:0.5), and Solution B (aqua:methanol:acetic acid=10:90:0.5); • Gradient condition (eluent composition): solution A→20 min.→solution B (5 min. elution)→1 min.→solution A (12 min. elution); • Flow rate: 1.0 mL; and • Detection wavelength: 323 nm.
• Column: InertsiL (registered trademark) ODS-3 4.6 mmI.D.×150 mm; • Column temperature: 40° C.; • Eluent: Solution A (pH=2.2 phosphate buffer:acetonitrile=90:10), and Solution B (pH=2.2 phosphate buffer:acetonitrile=10:90); • Gradient condition (eluent composition): Solution A→10 min.→Solution B (2.5 min. elution)→0.5 min.→Solution A (9 min. elution); • Flow rate: 2.0 mL; and
Detection wavelength: 315nm.
Based on the peak area obtained in the liquid chromatography analysis with respect to 1 μg/mL of each test compound in plasma, the plasma concentration (μg/mL) at each time point was calculated.

[4] = test system: circulatory insufficiency model of rats induced by injection of lauric-acid into their femoral artery; test: Circulatory insufficiency model induced by lauric-acid in rats (lesion index); format: in vivo, rat; design: key: summed toe lesion grades, +5 if heel reached; max 25 points; settings: male Wistar rats, average, max 25 points
Method: We performed this test in order to evaluate the pharmacological effect of the compounds of the present invention using a circulatory insufficiency model of rats induced by injection of lauric-acid into their femoral artery.
13-week-old male Wistar rats (body weight is 280 to 316 g), 8 rats per one group, were used. The rats were held in a supine position under anesthesia due to administration of 40 mg/kg of sodium pentobarbital by intraperitoneal injection. Then, the right femoral area was incised, thereby injecting 0.15 mL of 10 mg/mL lauric-acid solution into the femoral artery in order to induce lower limb gangrene caused by the peripheral vascular disorder. A few drops of instant adhesive (Aron-alpha; registered trademark) were used to stop bleeding, followed by topical application of antibiotics (potassium penicillin G solution) to prevent infection, and the incision site was then sutured.
The suspension was administered, by means of multiple oral dosing, 1 hour prior to and 3 hours after injection of lauric-acid and twice daily (at 10:00 and 17:00) for the following 9 days, at the dose of 30 mg/kg for each compound. […] The suspension was administered orally 3 hours prior to injection of lauric-acid at the dose of 300 mg/kg.
The extent of lesions was evaluated 3 days and 10 days after injection of lauric acid by the following criteria:
The lesion of each toe was graded and the total points of 5 toes were use as a lesion index, wherein 5 points were further added when the lesion reached the heel (i.e. the maximum lesion index was 25 points).
The shown number refers to the average value of the lesion index obtained from the evaluation.

[5] = test system: bleeding time in male SD rats; test: Effect on bleeding time in rats (tail cutting); settings: 30 mg/kg oral, max observation 60 min
Method: as §1, §2, §3

[6] = phosphate buffer pH 3.4, 37° C., read-out: Half-life, pH 3.4 solution (converted)
[7] = phosphate buffer pH 7.3, 37° C., read-out: Half-life, pH 7.3 solution (converted)
[8] = male, SD, rat, plasma, 10 mg/kg, 0.25 h
[9] = male, SD, rat, plasma, 10 mg/kg, 0.5 h
[10] = male, SD, rat, plasma, 10 mg/kg, 1.0 h
[11] = male, SD, rat, plasma, 10 mg/kg, 2.0 h
[12] = male, SD, rat, plasma, 10 mg/kg, 4.0 h
[13] = male, SD, rat, plasma, 10 mg/kg, 6.0 h
[14] = male, SD, rat, plasma, 10 mg/kg, 8.0 h
[15] = male, SD, rat, plasma, 10 mg/kg, from administration to 24 hours
[16] = male, SD, rat, plasma, 10 mg/kg
[17] = 30 mg/kg multiple oral dosing (1 h prior to and 3 h after lauric-acid, then twice daily for 9 days), 10 days after lauric-acid injection
[18] = 30 mg/kg multiple oral dosing (1 h prior to and 3 h after lauric-acid, then twice daily), 3 days after lauric-acid injection
[19] = 60 min between oral dosing and the tail cutting
[20] = 180 min between oral dosing and the tail cutting

SMILES: CC#CCC(C)[C@H](O)/C=C/[C@@H]1[C@H]2c3cccc(CCCC(=O)O)c3O[C@H]2C[C@H]1O (mixture of isomers) [beraprost sodium]
Bleeding time ([1]; 1 mg/kg, 60 min): 42.2 min

SMILES: CCCCCCCCOc1c(O)c2ccc(OCCO)cc2oc1=O [Compound 451]
Lesion Index after 10 days [4, 17]: 7.2
Lesion Index after 3 days [4, 18]: 2.6
Half-life, pH 3.4 solution [2]: >>100 hr
Half-life, pH 7.3 solution [2]: >>100 hr
Cmax (maximum plasma concentration) [3]: 25100 ± 13300 ng/mL
Tmax (time required to reach the maximum plasma concentration) [3]: 0.3 ± 0.1 h
plasma concentration, Mean, time point 0.25 h ([3]; 0.25 h): 23600 ng/mL
plasma concentration, Mean, time point 0.5 h ([3]; 0.5 h): 23600 ng/mL
plasma concentration, Mean, time point 1.0 h ([3]; 1.0 h): 17900 ng/mL
plasma concentration, Mean, time point 2.0 h ([3]; 2.0 h): 11800 ng/mL
plasma concentration, Mean, time point 4.0 h ([3]; 4.0 h): 9200 ng/mL
plasma concentration, Mean, time point 6.0 h ([3]; 6.0 h): 6800 ng/mL
plasma concentration, Mean, time point 8.0 h ([3]; 8.0 h): 3000 ng/mL
plasma concentration, Mean, time point 12.0 h ([3]; 12.0 h): 1200 ng/mL
plasma concentration, Mean, time point 24.0 h ([3]; 24.0 h): 500 ng/mL
AUC (area under the plasma concentration-time curve) ([3]; from administration to 24 hours): 99500 ± 64400 ng·h/mL
Bleeding time [5, 19]: 7.8 min
Bleeding time [5, 20]: 7.5 min

SMILES: CCCCCCCCOc1c(O)c2ccc(OCCC(=O)O)cc2oc1=O [Compound 525]
Lesion Index after 10 days [4, 17]: 7.8
Lesion Index after 3 days [4, 18]: 2.9
Half-life, pH 3.4 solution [2]: >>100 hr
Half-life, pH 7.3 solution [2]: >>100 hr
Bleeding time [5, 19]: 8.5 min
Bleeding time [5, 20]: 8.1 min

SMILES: CC(=O)Oc1ccccc1C(=O)O [aspirin]
Bleeding time ([1]; 100 mg/kg, 60 min): 40.2 min

SMILES: O=C1CCc2cc(OCCCCc3nnnn3C3CCCCC3)ccc2N1 [cilostazol]
Bleeding time ([1]; 300 mg/kg, 60 min): 50.1 min

SMILES: Clc1ccccc1CN1CCc2sccc2C1 [ticlopidine hydrochloride, reference compound]
Lesion Index after 3 days ([4]; positive control, 300 mg/kg orally 3 hours prior to lauric-acid injection, 3 days after injection): 2.8
Lesion Index after 10 days ([4]; positive control, 300 mg/kg orally 3 hours prior to lauric-acid injection, 10 days after injection): 7.4
Bleeding time ([1]; 300 mg/kg, 180 min): 36.1 min

The next lines start with results.

half-life at 1 mmoL/L [2, 6]: 53 h
half-life at 1 mmoL/L [2, 7]: 70 h
concentration at 0.25 h [3, 8]: 7400 ng/mL
concentration at 0.5 h [3, 9]: 4100 ng/mL
concentration at 1 h [3, 10]: 2000 ng/mL
concentration at 2 h [3, 11]: 1400 ng/mL
concentration at 4 h [3, 12]: 300 ng/mL
concentration at 6 h [3, 13]: 100 ng/mL
concentration at 8 h [3, 14]: 100 ng/mL
concentration at 12 h ([3]; male, SD, rat, plasma, 10 mg/kg, 12.0 h, read-out: plasma concentration, Mean, time point 12.0 h): 0 ng/mL
concentration at 24 h ([3]; male, SD, rat, plasma, 10 mg/kg, 24.0 h, read-out: plasma concentration, Mean, time point 24.0 h): 0 ng/mL
AUC [3, 15]: 8300 ± 2600 ng·h/mL
Cmax [3, 16]: 7400 ± 200 ng/mL
Tmax [3, 16]: 0.25 h
SMILES: O=c1oc2ccc(Cl)cc2c(O)c1O [B]

Half-life, pH 3.4 solution [2]: >>100 hr
Half-life, pH 7.3 solution [2]: >>100 hr
Bleeding time [5, 19]: 8.0 min
Bleeding time [5, 20]: 8.4 min
SMILES: CCCCCCOc1c(O)c2ccc(O)cc2oc1=O [Compound 125]
Lesion Index after 10 days [4, 17]: 8.1
Lesion Index after 3 days [4, 18]: 2.6

Bleeding time [5, 19]: 8.9 min
Bleeding time [5, 20]: 8.2 min
SMILES: CCOc1c(O)c2ccc(OC)cc2oc1=O [Compound 144]
Lesion Index after 10 days [4, 17]: 7.2
Lesion Index after 3 days [4, 18]: 2.5

Bleeding time [5, 19]: 9.1 min
Bleeding time [5, 20]: 8.3 min
SMILES: CCCCCCOc1c(O)c2ccc(OCCO)cc2oc1=O [Compound 445]
Lesion Index after 10 days [4, 17]: 7.5
Lesion Index after 3 days [4, 18]: 2.7

half-life at 1 mmoL/L [2, 6]: 30 h
half-life at 1 mmoL/L [2, 7]: 65 h
plasma concentration, Mean, time point 12.0 h ([3]; 12.0 h): Not detected
plasma concentration, Mean, time point 24.0 h ([3]; 24.0 h): Not detected
concentration at 0.25 h [3, 8]: 600 ng/mL
concentration at 0.5 h [3, 9]: 300 ng/mL
concentration at 1 h [3, 10]: 300 ng/mL
concentration at 2 h [3, 11]: 300 ng/mL
concentration at 4 h [3, 12]: 300 ng/mL
concentration at 6 h [3, 13]: 300 ng/mL
concentration at 8 h [3, 14]: 200 ng/mL
AUC [3, 15]: 2200 ± 100 ng·h/mL
Cmax [3, 16]: 600 ± 100 ng/mL
Tmax [3, 16]: 0.25 h
SMILES: O=c1oc2ccccc2c(O)c1O [comparative compound A]
